# Like-named read-outs stand apart in the source and are kept apart here. *1 amine or outer side, *2 acyl side, *3 side chain or, on linkers, in order; H or OH if unused. Where a SMILES comes first, the peptide text is derived from it. Bridges are numbered along the chain shown (N, C = ends). [ ]: non-standard residue; d: D form. αMeAla(3-pyridyl) = C[C@](N)(Cc1cccnc1)C(=O)O; X10 = C[C@@](Cc1ccc(F)cc1)(N[*:1])C(=O)[*:2]; Phe(3,4-Me2) = Cc1ccc(C[C@H](N)C(=O)O)cc1C; 2Nal = N[C@@H](Cc1ccc2ccccc2c1)C(=O)O; AEF = NCCOc1ccc(C[C@H](N)C(=O)O)cc1; X1 = O=C(Cc1ccc(CN[*:1])cc1)[*:2]; αMeR = C[C@](N)(CCCNC(=N)N)C(=O)O; αMeL = CC(C)C[C@](C)(N)C(=O)O; CH2COCH2 = O=C(C[*:1])C[*:2]; αMeV = CC(C)[C@](C)(N)C(=O)O; 3Amb = NCc1cccc(C(=O)O)c1; Dab = NCC[C@H](N)C(=O)O
# Experiments:
# [1] = Peptide stability in simulated gastric fluid (SGF); type: in vitro ADME; conditions: Table 3-3, porcine pepsin, pH 1.2, 37° C., 10 μM; for remaining at 1 h, 10 μM: read-out: SGF (% remaining 1 h)
# Protocol: Determination of Peptide Stability in Simulated Gastric Fluid (SGF) and Simulated Intestinal Fluid (SIF)
# SGF was prepared by dissolving sodium chloride (0.2 g) in 50 mL of water. A volume of 0.7 mL of 10 M HCl was added to adjust the pH of the solution to 1.2 and the volume made up to 100 mL with water. […] SIF was prepared by dissolving monobasic potassium phosphate (0.68 g) in 50 mL of water and adjusting the pH to 6.8 with 1 M NaOH. The volume was subsequently made up to 100 mL with water. 200 mg porcine pancreatin (P1625, Sigma Aldrich) was gently dissolved into 20 mL preheated (37° C.) solution (10 g/L) immediately prior to the incubation.
# The incubation was performed at 37° C. with gentle shaking. […] After the last timepoint, the sampling plate was mixed for 10 min on a shaking table and centrifuged 10 min at 2200 g. 70 μL resulting supernatant was diluted with 150 μL water, mixed and centrifugated before analysis by liquid chromatography high resolution mass spectrometry. […] Percent remaining at each timepoint was calculated relative to timepoint zero based on absolute peak areas.
# [2] = Peptide stability in simulated intestinal fluid (SIF); type: in vitro ADME; conditions: pig, simulated intestinal fluid (SIF) with porcine pancreatin, Table 3-2, porcine pancreatin, pH 6.8, 37° C., 10 μM; for remaining at 4 h, 10 μM: read-out: SIF (% remaining 4 h)
# In short: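 Peptides incubated at 37°C with gentle shaking in SGF (NaCl, HCl, pH 1.2) or SIF (phosphate pH 6.8 with 10 g/L porcine pancreatin). Samples analysed by LC-HRMS; percent remaining at each timepoint calculated from absolute peak areas relative to time zero.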
# human IL-23R = molecular target: T1, human IL-23R (Homo sapiens, UniProt Q5VWK5); assay: Binding assay (NanoBRET displacement of fluorophore-labelled reference compound) for estimating binding affinity to human IL-23R
# T1 construct: UniProtKB—Q5VWK5, amino acids 22-629; secretion signal of the plasmid (Promega N1371); expressed in transfected cells
# T1 sequence (Q5VWK5 22-629): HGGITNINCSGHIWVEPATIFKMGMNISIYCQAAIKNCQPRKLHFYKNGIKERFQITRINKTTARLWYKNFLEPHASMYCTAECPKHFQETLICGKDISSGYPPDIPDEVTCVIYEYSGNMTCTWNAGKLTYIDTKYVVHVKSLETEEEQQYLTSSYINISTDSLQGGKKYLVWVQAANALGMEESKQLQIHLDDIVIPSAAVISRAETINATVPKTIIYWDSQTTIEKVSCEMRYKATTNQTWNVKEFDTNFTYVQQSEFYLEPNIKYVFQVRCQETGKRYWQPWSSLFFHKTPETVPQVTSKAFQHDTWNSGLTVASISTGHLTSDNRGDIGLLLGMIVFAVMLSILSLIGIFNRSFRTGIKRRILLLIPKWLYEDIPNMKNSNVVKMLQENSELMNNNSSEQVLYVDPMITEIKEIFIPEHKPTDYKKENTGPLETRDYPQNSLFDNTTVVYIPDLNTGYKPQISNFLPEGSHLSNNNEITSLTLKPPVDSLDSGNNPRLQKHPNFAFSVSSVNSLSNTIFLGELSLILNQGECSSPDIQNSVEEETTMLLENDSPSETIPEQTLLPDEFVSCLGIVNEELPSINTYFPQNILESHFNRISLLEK
# [3] = molecular target: IL-23 mediated phospho-STAT3 formation in DB cells (Homo sapiens, UniProt Q5VWK5); assay: Functional inhibition of IL-23 mediated STAT3 signalling (phospho-STAT3 Tyr705 MSD) in DB cells; type: cell-based; conditions: DB cells, read-out: IC50 (pSTAT3)
# In short: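 DB cells preincubated 15 min with compound at 37° C, then stimulated 90 min with hIL-23 at EC80. Lysate phospho-STAT3 measured by MSD, normalized to IL-23-alone and buffer wells; IC50 and maximal % inhibition from 4PL fit.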
# [4] = pig, simulated gastric fluid (SGF) with porcine pepsin
# [5] = Table 3-1, read-out: Ki hIL-23R
smiles,measurement,setting,value
"CC(=O)N[C@@H](CC(=O)O)C(=O)N[C@H]1CCC(=O)NCCCC[C@@H](C(=O)NCC(N)=O)NC(=O)[C@](C)(CC(C)C)NC(=O)[C@H](Cc2ccc3ccccc3c2)NC(=O)[C@H](Cc2c[nH]c3ccccc23)NC(=O)[C@@H]2CSCC(=O)CSC[C@H](NC(=O)[C@H](CO)NC1=O)C(=O)N[C@@H](Cc1c[nH]c3ccccc13)C(=O)N[C@@H](CCC(N)=O)C(=O)N2 [Compound 60, [Ac]-DE(1c)SC(2a)WQC(2a)W[2-Nal][2-Me-Leu]K(1c)G-[NH2]] (Ac-DESCWQCW[2Nal][αMeL]KG-NH2; lactam 2-11; linker 4-7 via CH2COCH2)","remaining at 1 h, 10 μM",[1]; [4],7%
same,"remaining at 4 h, 10 μM","[1]; pig, simulated gastric fluid (SGF) with porcine pepsin, 4 h, read-out: SGF (% remaining 4 h)",0%
same,"remaining at 1 h, 10 μM","[2]; 1 h, read-out: SIF (% remaining 1 h)",69%
same,"remaining at 4 h, 10 μM",[2],12%
"CC[C@H](C)[C@@H]1NC(=O)Cc2ccc(cc2)CNC(=O)CC[C@@H](C(=O)N[C@@H](CCN)C(=O)N[C@@](C)(Cc2cccnc2)C(N)=O)NC(=O)[C@](C)(C(C)C)NC(=O)[C@H](Cc2ccc(C)c(C)c2)NC(=O)[C@](C)(Cc2ccc(F)cc2)NC(=O)[C@@H]2CCNC(=O)CC[C@H](NC1=O)C(=O)N[C@@H](Cc1c[nH]c3ccccc13)C(=O)N[C@@H](CCC(N)=O)C(=O)N2 [Compound 169, [4-Aminomethyl-phenylacetyl](1c)*IE(2c)WQ[Dab](2c)[2-Me-F(4-F)][F(3,4-Me)][2-Me-Val]E(1c)[Dab][2-Me-3-(3-Pyridyl)-Ala]-[NH2]] ([X1]IEWQ[Dab][X10][Phe(3,4-Me2)][αMeV]E[Dab][αMeAla(3-pyridyl)]-NH2; lactam 3-6, N-10)",SGF (% remaining 4 h),[1]; 4 h,121%
same,"remaining at 4 h, 10 μM",[2],72%
"CC(C)C[C@]1(C)NC(=O)[C@H](Cc2ccc3ccccc3c2)NC(=O)[C@H](Cc2ccc(OCCN)cc2)NC(=O)[C@@H]2CSCC(=O)CSC[C@H](NC(=O)[C@H](CO)NC(=O)c3cccc(c3)CNC(=O)CC[C@@H](C(=O)N[C@@](C)(CCCNC(=N)N)C(N)=O)NC1=O)C(=O)N[C@@H](Cc1c[nH]c3ccccc13)C(=O)N[C@@H](CCC(N)=O)C(=O)N2 [Compound 42, [(3-Aminomethyl)benzoyl](1c)*SC(2a)WQC(2a)[Y(2-aminoethoxy)][2-Nal][2-Me-Leu]E(1c)[2-Me-Arg]-[NH2]] ([3Amb]SCWQC[AEF][2Nal][αMeL]E[αMeR]-NH2; linker 3-6 via CH2COCH2; lactam N-10)","remaining at 1 h, 10 μM",[1]; [4],90%
same,Ki,human IL-23R; [5],2.76 nM
"CC(=O)N[C@@H](CC(=O)O)C(=O)N[C@H]1CCC(=O)NCCCC[C@@H](C(=O)N[C@@H](CCCNC(=N)N)C(N)=O)NC(=O)[C@H](CC(C)C)NC(=O)[C@H](Cc2c[nH]c3ccccc23)NC(=O)[C@H](C)NC(=O)[C@@H]2CSCC(=O)CSC[C@H](NC(=O)[C@H](CO)NC1=O)C(=O)N[C@@H](Cc1c[nH]c3ccccc13)C(=O)N[C@@H](CCC(N)=O)C(=O)N2 [Compound 14, [Ac]-DE(1c)SC(2a)WQC(2a)AWLK(1c)R-[NH2]] (HELM PEPTIDE1{[ac].D.E.S.C.W.Q.C.A.W.L.K.R.[am]}|CHEM1{[O=C(C[*:1])C[*:2]]}$PEPTIDE1,PEPTIDE1,3:R3-12:R3|PEPTIDE1,CHEM1,5:R3-1:R1|PEPTIDE1,CHEM1,8:R3-1:R2$$$V2.0)",IC50,[3]; Table 3-1,> 1000 nM
same,Ki,human IL-23R; [5],> 1000 nM
"CSCC[C@@H]1NC(=O)[C@H](CO)NC(=O)[C@@H](NC(=O)[C@H](CC(=O)O)NC(C)=O)CCC(=O)NCCCC[C@@H](C(=O)N[C@@H](CCCNC(=N)N)C(N)=O)NC(=O)[C@H](CC(C)C)NC(=O)[C@H](Cc2c[nH]c3ccccc23)NC(=O)[C@H](Cc2c[nH]c3ccccc23)NC(=O)[C@H](CCSC)NC(=O)[C@H](CCC(N)=O)NC(=O)[C@H](Cc2c[nH]c3ccccc23)NC1=O [Ref 4, reference compound] (HELM PEPTIDE1{[ac].D.E.S.M.W.Q.M.W.W.L.K.R.[am]}$PEPTIDE1,PEPTIDE1,3:R3-12:R3$$$V2.0)",IC50,[3]; Table 3-1,> 1000 nM
same,Ki,human IL-23R; [5],> 1000 nM
"CC(C)C[C@@H]1NC(=O)[C@H](Cc2ccc3ccccc3c2)NC(=O)[C@H](Cc2c[nH]c3ccccc23)NC(=O)[C@@H]2CSCC(=O)CSC[C@H](NC(=O)[C@H](CO)NC(=O)CCNC(=O)CC[C@@H](C(=O)N[C@@H](CCCNC(=N)N)C(N)=O)NC1=O)C(=O)N[C@@H](Cc1c[nH]c3ccccc13)C(=O)N[C@@H](CCC(N)=O)C(=O)N2 [Compound 36, [bAla](1c)*SC(2a)WQC(2a)W[2-Nal]LE(1c)R-[NH2]] (HELM PEPTIDE1{[bAla].S.C.W.Q.C.W.[O=C([C@H](Cc1ccc2ccccc2c1)N[*:1])[*:2]].L.E.R.[am]}|CHEM1{[O=C(C[*:1])C[*:2]]}$PEPTIDE1,CHEM1,3:R3-1:R1|PEPTIDE1,CHEM1,6:R3-1:R2|PEPTIDE1,PEPTIDE1,1:R1-10:R3$$$V2.0)",IC50,[3]; Table 3-1,> 1000 nM
same,Ki,human IL-23R; [5],> 1000 nM
"CC(C)C[C@@H]1NC(=O)[C@H](Cc2c[nH]c3ccccc23)NC(=O)[C@H](Cc2c[nH]c3ccccc23)NC(=O)[C@@H]2CSCC(=O)CSC[C@H](NC(=O)[C@H](CO)NC(=O)[C@@H](NC(=O)[C@@H](N)CC(=O)O)CCC(=O)NCCCC[C@@H](C(=O)N[C@@H](CCCNC(=N)N)C(N)=O)NC1=O)C(=O)N[C@@H](Cc1c[nH]c3ccccc13)C(=O)N[C@@H](CCC(N)=O)C(=O)N2 [Compound 4, H-DE(1c)SC(2a)WQC(2a)WWLK(1c)R-[NH2]] (HELM PEPTIDE1{D.E.S.C.W.Q.C.W.W.L.K.R.[am]}|CHEM1{[O=C(C[*:1])C[*:2]]}$PEPTIDE1,PEPTIDE1,2:R3-11:R3|PEPTIDE1,CHEM1,4:R3-1:R1|PEPTIDE1,CHEM1,7:R3-1:R2$$$V2.0)",IC50,[3]; Table 2-3b,> 1000 nM
same,IC50,[3]; Table 2-4b,> 1000 nM
same,IC50,[3]; Table 2-5b,> 1000 nM
same,"potency depending on location of the amide bond in the [2,11] lactam bridge (in words)","human IL-23R; Compound 7 (amide closer to position 11) versus Compound 4 (closer to position 2), Table 2-3b",less active
"CC(=O)N[C@@H](CC(=O)O)C(=O)N[C@H]1CCCCNC(=O)CC[C@@H](C(=O)N[C@@H](CCCNC(=N)N)C(N)=O)NC(=O)[C@H](CC(C)C)NC(=O)[C@H](Cc2ccc3ccccc3c2)NC(=O)[C@H](Cc2c[nH]c3ccccc23)NC(=O)[C@@H]2CSCc3ccc(cc3)CSC[C@H](NC(=O)[C@H](CO)NC1=O)C(=O)N[C@@H](Cc1c[nH]c3ccccc13)C(=O)N[C@@H](CCC(N)=O)C(=O)N2 [Compound 22, [Ac]-DK(1c)SC(2f)WQC(2f)W[2-Nal]LE(1c)R-[NH2]] (HELM PEPTIDE1{[ac].D.K.S.C.W.Q.C.W.[O=C([C@H](Cc1ccc2ccccc2c1)N[*:1])[*:2]].L.E.R.[am]}|CHEM1{[c1cc(C[*:2])ccc1C[*:1]]}$PEPTIDE1,PEPTIDE1,3:R3-12:R3|PEPTIDE1,CHEM1,5:R3-1:R1|PEPTIDE1,CHEM1,8:R3-1:R2$$$V2.0)",IC50,[3]; Table 2-7b,> 1000 nM
same,IC50,[3]; Table 3-1,> 1000 nM
same,Ki,"human IL-23R; Table 2-7b, read-out: Ki IL-23R",563 nM
"CC(C)C[C@@H]1NC(=O)[C@H](Cc2c[nH]c3ccccc23)NC(=O)[C@H](Cc2c[nH]c3ccccc23)NC(=O)[C@@H]2CSCC(=O)CSC[C@H](NC(=O)[C@H](CO)NC(=O)[C@@H](NC(=O)[C@@H](N)CC(=O)O)CCC(=O)NCC[C@@H](C(=O)N[C@@H](CCCNC(=N)N)C(N)=O)NC1=O)C(=O)N[C@@H](Cc1c[nH]c3ccccc13)C(=O)N[C@@H](CCC(N)=O)C(=O)N2 [Compound 9, H-DE(1c)SC(2a)WQC(2a)WWL[Dab](1c)R-[NH2]] (HELM PEPTIDE1{D.E.S.C.W.Q.C.W.W.L.[Dab].R.[am]}|CHEM1{[O=C(C[*:1])C[*:2]]}$PEPTIDE1,PEPTIDE1,2:R3-11:R3|PEPTIDE1,CHEM1,4:R3-1:R1|PEPTIDE1,CHEM1,7:R3-1:R2$$$V2.0)",IC50,[3]; Table 3-1,> 1000 nM
same,Ki,human IL-23R; [5],> 1000 nM

# Reference: patent US20250154198A1, “PEPTIDE INHIBITORS OF INTERLEUKIN-23 RECEPTOR” (Zealand Pharma A/S, priority 2021, published 2025)
